Experimental data from patent US20080071190A1, “Timing of Ovulation Based on Vaginal Ph” (priority 2004, published 2008).

How the values were obtained:
[1] = test system: hECE cells (Human Ectocervical-Vaginal Epithelial Cells); test: Determinations of extracellular pH (pHo) in luminal and contra-luminal solutions of hECE cells cultured on filters; format: cell-based
Method: Referring to FIG. 4A, hECE cells or Human Endocervical Cells were plated on Anocell filters (Anocel™-10, Oxon, UK, obtained through Sigma Chemicals, St. Louis, Mo.), which are ceramic-base filters, pore size of 0.02 μm width, 50 μm depth, and surface area of 0.6 cm^2. Filters 300 and 302 were coated with 4 μg/cm^2 collagen type IV and incubated at 37° C. overnight. The remaining collagen solution was aspirated and the filter was dried at 37° C. Before plating, filters 300 were rinsed 3 times with Hanks' Balanced Salt Solution. Cells were plated either on the upper surface 302 of one filter 300 (for determinations of luminal pHo) or on the bottom surface 304 of the other filter 300 (for determinations of the contra-luminal pHo) at 3·10^5 cells/cm^2. By plating at this relatively high density the cultures became confluent within 12 hours after plating.
Plates containing the filters were placed in a tissue culture incubator (37° C.), and pHo changes in the luminal and contra-luminal solutions were determined using AMANI-1000 microcombination pH electrodes 306 (Harvard Apparatus, Holliston, Mass., obtained through Genomics Solutions, Ann Harbor, Mich.). The AMANI-1000 pH sensor (stored in pH 7.0) is based on metal-metal oxide pH measurements and the pH sensitive layer is immobilized on plastic. The reference electrode employs an Ag/AgCl in 3.4 M KCl reference electrode, and the reference electrode junction is leak-free ensuring no leaks of KCl out of the reference electrode. The design of the pH electrodes 306 enabled their use for the purpose of the present experiments: tip diameter of 1 mm, depth of immersion 1 mm, and response time of less than 5 sec.
Electrodes 306 attached to a stand were held stable with the tip immersed in the solution within the upper compartment of the filter to a depth of about 2 mm avoiding direct contact between the electrode tip and the cultured cells. The electrodes were connected directly to a pH meter 310 (e.g., Accumet pH meter 910) (Fisher Scientific, Suwanee Ga.). After stabilization, the luminal and contraluminal solutions were gently aspirated using glass pipette, and replaced with fresh warmed (37° C.) Basic Salt Solution containing (in mM) NaCl (140), KCl (5), MgCl2 (1), CaCl2 (1), glucose (10), and 0.1% bovine serum albumin, pH 7.4. The volumes in the luminal and contraluminal compartments were 150 μl and 500 μl, respectively. Determinations of changes in pHo were made at time 0, and at 5 min intervals thereafter for up to 30 min.
To remove intracellular estrogens cells were grown in steroid-free medium as described. This procedure involved shifting cells on filters for three days prior to pHo assays to a medium composed of phenol-red-deficient (DMEM)/Ham's F12 or (Sigma Chemicals, St. Louis, Mo.) containing 8% heat inactivated fetal bovine serum that was previously treated with charcoal to remove steroids. Preparation of charcoal-treated serum was described; briefly, dextran-coated charcoal (Sigma Chemicals, St. Louis, Mo.) was dissolved at 8% in 0.15 M NaCl, autoclaved, mixed by stirring, spun and the pellet was resuspended as 1 gm/1.25 ml in H2O. Fetal bovine serum (Hyclone, Logan, Utah) was mixed with the activated charcoal-dextran at 20:1 (Vol:Vol) and incubated for 45 min at 55° C. At the completion of incubation the mixture was spun twice at 800 g for 20 min and the supernatant (serum) was decanted and collected. For experiments, cells were shifted to steroid-free medium for 3 days; alternatively, cells were shifted to the steroid-free medium for 24 hrs and treated with 17β-estradiol for two additional days.

Human Endocervical Cells = test: Determinations of extracellular pH (pHo) in luminal and contra-luminal solutions of Human Endocervical Cells cultured on filters; format: cell-based; conditions: steroid-free medium and treatment with 10 nM estradiol, no effect
Method: Primary cultures of Human Endocervical Cells were obtained through Clonetics (Walkersville, Md.). Cells chosen for experiments were those obtained from tissues of two women reported as HPV negative, and the cultured Endocervical Cells were tested for mycoplasma. Primary Endocervical cultures were grown and subcultured into second passage using Clonetics proprietary Endocervical Medium (supplied with the cells), and thereafter maintained in hECE culture medium. Cells were characterized as epithelial cells based on typical morphology of a monolayered epithelium; the expression of involucrin; lack of expression of vimentin; and expression of tight junctions (not shown). […] The cells were defined as phenotypically endocervical (in contrast to ectocervical/vaginal) based on expression of apical villi, the abundant expression of cytokeratins 18/19, and minimal expression of cytokeratins 4/5 and 13. Both hECE cells and the Human Endocervical Cells (not shown) expressed functional estrogen receptors. […]
Plates containing the filters were placed in a tissue culture incubator (37° C.), and pHo changes in the luminal and contra-luminal solutions were determined using AMANI-1000 microcombination pH electrodes 306 (Harvard Apparatus, Holliston, Mass., obtained through Genomics Solutions, Ann Harbor, Mich.). […]

hECE cells = test: Cell-vitality staining (MTT assay); format: cell-based, human; conditions: Steroid-Free Medium + substance, means ±SD, 3 to 4 repeats
Method: Cell-vitality staining was done using the 3-[4,5-dimethylthiazol-2-yl]-2,5-diphenyl tetrazolium bromide (MTT) assay. MTT serves as a substrate for mitochondrial dehydrogenases, and only viable functional mitochondria are capable of cleaving MTT to generate the colored product formazan. MTT solution was prepared by dissolving MTT at a concentration of 5 mg/ml in phosphate-buffered saline (PBS) composed of (mM) NaCl (137), KCl (2.68), Na2HPO4 (10), KH2PO4 (1.76), pH 7.4, and filtering the solution through Millipore filter. Following treatments/assays, cells on filters were washed with fresh and warm (37° C.) PBS and incubated for 60 min at 37° C. in MTT solution. At the completion of incubation, cells were washed with PBS, and solubilized in isopropanol containing 0.1 M HCl plus 1% Triton X-100. Lysates were mixed by pipetting to dissolve the reduced MTT crystals (during which time the colorless solution turned purple) and were spinned at 10,000 g for 5 min. The solubilized formazan was measured by determining absorption at 570 nm. Background absorbance at 690 nm was subtracted for each sample, and values were normalized to OD570 (optic density) of control unperturbed cells.

C[C@]12CC[C@@H]3c4ccc(O)cc4CC[C@H]3[C@@H]1CC[C@@H]2O [17β-estradiol]
EC50 ([1]; Homo sapiens, Epithelial cell, hECE cells grown in steroid-free medium, dose response FIG. 8B, read-out: EC50 of decrease in luminal pHo): ~0.5 nM | luminal pHo ([1]; hECE cells in steroid-free medium treated with 10 nM 17β-estradiol for two days, 30 min, steroid-free medium alone 7.11±0.02): 7.03±0.02 | luminal pHo ([1]; hECE cells in steroid-free medium, 0.1 nM 17β-estradiol, decreased from 7.26±0.03): 7.13±0.03 | effect on luminal pHo (dose response) ([1]; hECE cells in steroid-free medium, 1 nM): reached near saturation | effect on luminal pHo (dose response) ([1]; hECE cells in steroid-free medium, 100 nM): no additional effect | contra-luminal pHo ([1]; hECE cells, steroid-free medium and treatment with 10 nM estradiol, no effect): around 7.25 | contra-luminal pHo or luminal pHo (Human Endocervical Cells): around 7.25 | hECE cell vitality (MTT staining normalized to OD570 of control unperturbed cells), Baseline (hECE cells; Baseline): 96 ± 3% | hECE cell vitality (MTT staining normalized to OD570 of control unperturbed cells), 30 min pHo (hECE cells; after 30 min pHo measurement): 94 ± 4%
